From US20250040554A1, “NEW USES OF PHENMEDIPHAM AND HERBICIDAL COMBINATIONS COMPRISING PHENMEDIPHAM” (BAYER AKTIENGESELLSCHAFT, priority 2021, published 2025)

Legend:
Assay type in all cases: in vivo
[1] = test system: ECHCG=Echinochloa crus-galli; test: Greenhouse weed control trial ECHCG; settings: 25 DAA
From the text: (§1) The respective (combinations of) materials were applied to weed plants in the greenhouse or in the field at the respective growth stage indicated hereinafter for the different weed species mentioned below. The respective (combinations of) active ingredients were also applied to corn, cotton and soybean crop plants, and the selectivity (damage) in these crop plants rated (assessed).
(§2) Visual scoring of the damage to the trial plants took place after the time mentioned in the respective Table—indicated in number of Days After Application (DAA). Damage and development of all above-ground parts of the respective plants was recorded. Visual rating was done on a percentage scale in relation to the untreated control (100%=all plants dead; 50%=green plant biomass reduced by 50%, and 0%=no discernible difference=like control plot).
(§3) The trials in the greenhouse were sprayed with an application volume of 300 L/ha with an automated track sprayer. The plots in the field were sprayed with an application volume of 140 L/ha with a hand held spray boom.
(§4) In greenhouse selectivity trials and trials herbicidal activity trials against weed plants were investigated in post-emergence application of the respective material(s).
(§5) Herbicidal activity against different weeds (undesired plants) was calculated as follows.
(§6) wherein • A, B=respective value in percent of active ingredient A at a dose rate of a g/ha, ingredient B at a dose rate of b g/ha • E^C=Expected value according to Colby (S. R. Colby; Weeds 15 (1967), 20-22) in % at a dose rate of a+b, each in g/ha • Δ=Difference (in %) between measured value E and expected value E^C (%) (measured value minus expected value)
(§7) • measured value E is greater than E^C:->synergism (+Δ) • measured value E is equal to E^C:->additive effect • measured value E is smaller than E^C:->antagonism (−Δ)
(§8) The weed control activity of different (combinations of) materials was investigated in greenhouse trials for the following weed species: • STEME=Stellaria media • ECHCG=Echinochloa crus-galli • BROTE=Bromus tectorum
(§9) Phenmedipham amd Mesotrione were applied at varying application rates (Dose Rate) to the weed plant species STEME, ECHCG and BROTE. The results are shown in Tables 2a to 2c as the % control when assessed 25 days after application (25 DAA).
(§10) In all the trials of Table Tables 2a to 2c Mero® (rapeseed oil methyl ester) was added to the respective spray mixture in an amount corresponding to 1 L/ha for PMP, 1 L/ha for MST, and 2 L/ha for mixtures of PMP+MST.

BROTE=Bromus tectorum = test: Greenhouse weed control trial BROTE; settings: 25 DAA
From the text: as §1, §2, §3, §4, §5, §6, §7, §8, §9, §10

[2] = test system: IPOAO=Ipomoea aristolochiaefolia; test: Weed control field trial IPOAO
From the text: as §1, §2, §3, §6
(§11) The growth stages of the different weed species are indicated according to the BBCH monograph “Growth stages of mono- and dicotyledonous plants”, 2nd edition, 2001, ed. Uwe Meier, Federal Biological Research Centre for Agriculture and Forestry (Biologische Bundesanstalt für Land und Forstwirtschaft).
(§12) After the harmful plants had emerged, they were treated, at the respective growth stage indicated, with the respective materials as indicated at a water application rate of 140 L/ha.
(§13) After the treatment (21 or 35 days after application of the respective material), the herbicidal activity of respective material was scored visually at the same time by comparing the differently treated plots with the untreated control plots. The score figures of the different plots were averaged.
(§14) The dose rates of herbicidal ingredients used in each case are indicated for the respective active ingredient and refer to the amount of active ingredient per hectare (g/ha).
(§15) The weed control activity of different (combinations of) herbicidal active ingredients was investigated in field trials for the following weed species: • AMAVI=Amaranthus viridis • IPOAO=Ipomoea aristolochiaefolia • EPHHL=Euphorbia heterophylla • BIDPI=Bidens pilosa • BRADC=Brachiaria decumbens • ELEIN=Eleusine indica • CCHEC=Cenchrus echinatus
(§16) The growth stage of AMAVI was BBCH 13, the growth stage of IPOAO was BBCH 15, the growth stage of EPHHL was BBCH 13, the growth stage of BIDPI was BBCH 14, the growth stage of BRADC was BBCH 23, the growth stage of ELEIN was BBCH 11 and the growth stage of CCHEC was BBCH 12 at the time of application of the respective material.
(§17) Phenmedipham and Mesotrione were applied at varying application rates (Dose Rate) to the different species of weed plants. The results are shown in Tables 3a to 3e as the % control when assessed 21 and 35 days after application (DAA), respectively.
(§18) In all the trials of Tables 3a to 3e Mero® (rapeseed oil methyl ester) was added to the respective spray mixture in an amount corresponding to 1 L/ha for PMP, 1 L/ha for MST, and 2 L/ha for mixtures of PMP+MST.

ELEIN=Eleusine indica = test: Weed control field trial ELEIN
From the text: as §1, §2, §3, §6, §11, §12, §13, §14, §15, §16, §17, §18

CCHEC=Cenchrus echinatus = test: Weed control field trial CCHEC
From the text: as §1, §2, §3, §6, §11, §12, §13, §14, §15, §16, §17, §18

PANRA=Panicum ramosum = test: Weed control field trial PANRA; settings: 15 DAA
From the text: as §1, §2, §6
After the harmful plants had emerged, they were treated, at the respective growth stage indicated, with the respective materials as indicated at a water application rate of 187 L/ha.
After the treatment (15 days after the treatment), the herbicidal activity of respective material was scored visually at the same time by comparing the differently treated plots with the untreated control plots. The score figures of the different plots were averaged.
as §14
The weed control activity of different (combinations of) herbicidal active ingredients was investigated in field trials for the following weed species: • AMARE=Amaranthus retroflexus • KCHSC=Kochia scoparia • PANRA=Panicum ramosum
The growth stage of AMARE was BBCH 19, the growth stage of KCHSC was BBCH 19 and the growth stage of PANRA was BBCH 22 at the time of application of the respective material.
Phenmedipham and the respective aroylcyclohexanedione herbicide were applied at varying application rates (Dose Rate) to the different species of weed plants. The results are shown in Tables 4a to 4d as the % control when assessed 15 days after application (DAA), respectively.
In all the trials of Tables 4a to 4d Mero® (rapeseed oil methyl ester) was added to the respective spray mixture in an amount corresponding to 1 L/ha for PMP, 1 L/ha for the respective aroylcyclohexanedione herbicide, and 2 L/ha for mixtures of PMP+the respective aroylcyclohexanedione herbicide.

## CS(=O)(=O)c1ccc(C(=O)C2C(=O)CCCC2=O)c([N+](=O)[O-])c1 [MST, 2-[4-(methylsulfonyl)-2-nitrobenzoyl]cyclohexane-1,3-dione]
[1]; 12.5 g/ha
  % control ECHCG: 15%
[1]; 25 g/ha
  % control ECHCG: 28%
[1]; 50 g/ha
  % control ECHCG: 70%
[1]; 75 g/ha
  % control ECHCG: 70%
BROTE=Bromus tectorum; 12.5 g/ha
  % control BROTE: 30%
BROTE=Bromus tectorum; 25 g/ha
  % control BROTE: 30%
BROTE=Bromus tectorum; 50 g/ha
  % control BROTE: 35%
BROTE=Bromus tectorum; 75 g/ha
  % control BROTE: 40%
[2]; 25 g/ha, 21 DAA
  % control IPOAO: 0%
[2]; 25 g/ha, 35 DAA
  % control IPOAO: 0%
[2]; 50 g/ha, 21 DAA
  % control IPOAO: 17%
[2]; 50 g/ha, 35 DAA
  % control IPOAO: 0%
ELEIN=Eleusine indica; 25 g/ha, 21 DAA
  % control ELEIN: 0%
ELEIN=Eleusine indica; 25 g/ha, 35 DAA
  % control ELEIN: 0%
ELEIN=Eleusine indica; 50 g/ha, 21 DAA
  % control ELEIN: 17%
ELEIN=Eleusine indica; 50 g/ha, 35 DAA
  % control ELEIN: 17%
CCHEC=Cenchrus echinatus; 25 g/ha, 35 DAA
  % control CCHEC: 0%
CCHEC=Cenchrus echinatus; 50 g/ha, 21 DAA
  % control CCHEC: 17%
CCHEC=Cenchrus echinatus; 50 g/ha, 35 DAA
  % control CCHEC: 0%
PANRA=Panicum ramosum; 20 g/ha
  % control PANRA: 15%

## COC(=O)Nc1cccc(OC(=O)Nc2cccc(C)c2)c1 [PMP, 3-[(methoxyformyl)amino]phenyl (3-methylphenyl)carbamate]
[1]; 12.5 g/ha
  % control ECHCG: 0%
[1]; 25 g/ha
  % control ECHCG: 0%
[1]; 50 g/ha
  % control ECHCG: 0%
[1]; 75 g/ha
  % control ECHCG: 0%
[1]; 100 g/ha
  % control ECHCG: 0%
[1]; 125 g/ha
  % control ECHCG: 0%
[1]; 300 g/ha
  % control ECHCG: 10%
BROTE=Bromus tectorum; 12.5 g/ha
  % control BROTE: 0%
BROTE=Bromus tectorum; 25 g/ha
  % control BROTE: 0%
BROTE=Bromus tectorum; 50 g/ha
  % control BROTE: 9%
BROTE=Bromus tectorum; 75 g/ha
  % control BROTE: 0%
BROTE=Bromus tectorum; 100 g/ha
  % control BROTE: 0%
BROTE=Bromus tectorum; 125 g/ha
  % control BROTE: 0%
BROTE=Bromus tectorum; 300 g/ha
  % control BROTE: 20%
[2]; 75 g/ha, 21 DAA
  % control IPOAO: 0%
[2]; 75 g/ha, 35 DAA
  % control IPOAO: 0%
[2]; 100 g/ha, 21 DAA
  % control IPOAO: 0%
[2]; 100 g/ha, 35 DAA
  % control IPOAO: 0%
[2]; 125 g/ha, 21 DAA
  % control IPOAO: 0%
[2]; 125 g/ha, 35 DAA
  % control IPOAO: 0%
[2]; 250 g/ha, 21 DAA
  % control IPOAO: 0%
[2]; 250 g/ha, 35 DAA
  % control IPOAO: 0%
ELEIN=Eleusine indica; 75 g/ha, 21 DAA
  % control ELEIN: 0%
ELEIN=Eleusine indica; 75 g/ha, 35 DAA
  % control ELEIN: 0%
ELEIN=Eleusine indica; 100 g/ha, 21 DAA
  % control ELEIN: 0%
ELEIN=Eleusine indica; 100 g/ha, 35 DAA
  % control ELEIN: 0%
ELEIN=Eleusine indica; 125 g/ha, 21 DAA
  % control ELEIN: 0%
ELEIN=Eleusine indica; 125 g/ha, 35 DAA
  % control ELEIN: 0%
ELEIN=Eleusine indica; 250 g/ha, 21 DAA
  % control ELEIN: 0%
ELEIN=Eleusine indica; 250 g/ha, 35 DAA
  % control ELEIN: 0%
CCHEC=Cenchrus echinatus; 75 g/ha, 21 DAA
  % control CCHEC: 0%
CCHEC=Cenchrus echinatus; 75 g/ha, 35 DAA
  % control CCHEC: 0%
CCHEC=Cenchrus echinatus; 100 g/ha, 21 DAA
  % control CCHEC: 0%
CCHEC=Cenchrus echinatus; 100 g/ha, 35 DAA
  % control CCHEC: 0%
CCHEC=Cenchrus echinatus; 125 g/ha, 21 DAA
  % control CCHEC: 0%
CCHEC=Cenchrus echinatus; 125 g/ha, 35 DAA
  % control CCHEC: 0%
CCHEC=Cenchrus echinatus; 250 g/ha, 21 DAA
  % control CCHEC: 0%
CCHEC=Cenchrus echinatus; 250 g/ha, 35 DAA
  % control CCHEC: 0%
PANRA=Panicum ramosum; 150 g/ha
  % control PANRA: 0%
PANRA=Panicum ramosum; 300 g/ha
  % control PANRA: 5%
